PMC7488503 (Acta Pharmaceutica Sinica. B, 2020)

Tests used:
HUVECs = assay: VEGF-induced HUVECs proliferation; format: cell-based; details: Homo sapiens, HUVEC, 72 h, read-out: IC50 HUVECs
[1] = system: A549 lung cancer xenograft; assay: A549 lung cancer subcutaneous xenograft model; format: in vivo, Balb/c nude mice
HBVPs = assay: PDGF-BB-induced HBVPs proliferation; format: cell-based; details: Homo sapiens, 48 h, read-out: IC50 HBVPs
[2] = system: NCI-H520 lung cancer xenograft; assay: NCI-H520 lung cancer subcutaneous xenograft model; format: in vivo, Balb/c nude mice
VEGFR2 = VEGFR2 (Homo sapiens, UniProt P35968); assay: Z′-LYTE kinase inhibition assay
Chain of VEGFR2 (P35968 20-1356): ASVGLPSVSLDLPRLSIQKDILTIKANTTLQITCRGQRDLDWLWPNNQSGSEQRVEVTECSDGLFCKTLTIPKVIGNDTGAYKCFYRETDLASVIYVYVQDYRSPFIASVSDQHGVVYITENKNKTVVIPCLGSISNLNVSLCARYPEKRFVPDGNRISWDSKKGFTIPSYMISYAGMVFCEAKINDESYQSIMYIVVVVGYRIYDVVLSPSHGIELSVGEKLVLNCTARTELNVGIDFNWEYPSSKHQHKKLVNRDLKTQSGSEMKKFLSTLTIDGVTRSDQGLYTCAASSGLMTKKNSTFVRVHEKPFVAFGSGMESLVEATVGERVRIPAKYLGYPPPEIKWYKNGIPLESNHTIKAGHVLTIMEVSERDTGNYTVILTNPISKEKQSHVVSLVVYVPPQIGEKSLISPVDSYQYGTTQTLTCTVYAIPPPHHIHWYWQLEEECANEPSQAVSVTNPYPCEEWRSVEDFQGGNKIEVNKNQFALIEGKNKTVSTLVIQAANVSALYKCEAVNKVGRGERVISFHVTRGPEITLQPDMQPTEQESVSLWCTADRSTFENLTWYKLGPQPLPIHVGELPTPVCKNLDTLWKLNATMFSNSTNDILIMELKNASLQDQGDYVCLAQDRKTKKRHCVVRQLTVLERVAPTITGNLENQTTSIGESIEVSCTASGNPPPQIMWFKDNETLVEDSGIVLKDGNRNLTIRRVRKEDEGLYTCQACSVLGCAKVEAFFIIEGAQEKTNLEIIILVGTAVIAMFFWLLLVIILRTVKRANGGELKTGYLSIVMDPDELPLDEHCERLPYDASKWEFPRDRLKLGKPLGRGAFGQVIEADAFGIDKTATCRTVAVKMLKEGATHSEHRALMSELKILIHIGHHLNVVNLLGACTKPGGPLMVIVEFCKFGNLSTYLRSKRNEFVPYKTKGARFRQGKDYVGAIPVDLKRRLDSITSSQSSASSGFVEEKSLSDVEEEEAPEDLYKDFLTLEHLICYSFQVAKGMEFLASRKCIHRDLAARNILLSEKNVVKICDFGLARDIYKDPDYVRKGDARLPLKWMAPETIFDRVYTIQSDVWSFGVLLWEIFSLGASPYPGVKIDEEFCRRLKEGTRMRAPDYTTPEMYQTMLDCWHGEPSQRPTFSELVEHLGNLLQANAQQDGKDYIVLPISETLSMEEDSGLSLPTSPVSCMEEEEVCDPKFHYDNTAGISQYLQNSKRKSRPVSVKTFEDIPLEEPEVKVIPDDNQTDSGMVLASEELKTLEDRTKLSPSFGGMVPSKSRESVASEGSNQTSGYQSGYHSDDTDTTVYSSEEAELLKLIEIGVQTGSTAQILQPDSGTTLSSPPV

FGFR1 = FGFR1 (Homo sapiens, UniProt P11362); assay: Z′-LYTE kinase inhibition assay
Chain of FGFR1 (P11362 22-822): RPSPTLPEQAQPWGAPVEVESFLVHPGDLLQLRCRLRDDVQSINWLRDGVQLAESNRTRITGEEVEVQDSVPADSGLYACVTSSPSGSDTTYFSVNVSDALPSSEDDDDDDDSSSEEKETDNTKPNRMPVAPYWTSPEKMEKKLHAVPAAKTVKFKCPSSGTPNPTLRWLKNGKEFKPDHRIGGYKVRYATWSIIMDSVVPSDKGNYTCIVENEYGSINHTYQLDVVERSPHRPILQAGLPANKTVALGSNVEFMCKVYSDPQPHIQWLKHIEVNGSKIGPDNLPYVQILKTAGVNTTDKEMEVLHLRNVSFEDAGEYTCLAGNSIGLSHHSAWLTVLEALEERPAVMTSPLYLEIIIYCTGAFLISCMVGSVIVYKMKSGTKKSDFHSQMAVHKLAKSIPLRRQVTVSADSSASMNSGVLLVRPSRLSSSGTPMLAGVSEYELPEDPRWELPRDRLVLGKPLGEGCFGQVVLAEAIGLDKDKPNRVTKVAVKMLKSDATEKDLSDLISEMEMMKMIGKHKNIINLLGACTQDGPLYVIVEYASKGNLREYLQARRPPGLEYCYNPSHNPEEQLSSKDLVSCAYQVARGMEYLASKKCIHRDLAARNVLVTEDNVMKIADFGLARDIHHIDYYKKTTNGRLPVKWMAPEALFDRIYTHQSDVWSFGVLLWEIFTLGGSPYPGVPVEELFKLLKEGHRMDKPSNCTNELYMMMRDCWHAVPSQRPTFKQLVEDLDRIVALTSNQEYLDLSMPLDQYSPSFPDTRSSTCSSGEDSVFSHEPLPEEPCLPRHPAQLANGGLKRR

PDGFRβ = PDGFRβ (Homo sapiens, UniProt P09619); assay: Z′-LYTE kinase inhibition assay
Chain of PDGFRβ (P09619 33-1106): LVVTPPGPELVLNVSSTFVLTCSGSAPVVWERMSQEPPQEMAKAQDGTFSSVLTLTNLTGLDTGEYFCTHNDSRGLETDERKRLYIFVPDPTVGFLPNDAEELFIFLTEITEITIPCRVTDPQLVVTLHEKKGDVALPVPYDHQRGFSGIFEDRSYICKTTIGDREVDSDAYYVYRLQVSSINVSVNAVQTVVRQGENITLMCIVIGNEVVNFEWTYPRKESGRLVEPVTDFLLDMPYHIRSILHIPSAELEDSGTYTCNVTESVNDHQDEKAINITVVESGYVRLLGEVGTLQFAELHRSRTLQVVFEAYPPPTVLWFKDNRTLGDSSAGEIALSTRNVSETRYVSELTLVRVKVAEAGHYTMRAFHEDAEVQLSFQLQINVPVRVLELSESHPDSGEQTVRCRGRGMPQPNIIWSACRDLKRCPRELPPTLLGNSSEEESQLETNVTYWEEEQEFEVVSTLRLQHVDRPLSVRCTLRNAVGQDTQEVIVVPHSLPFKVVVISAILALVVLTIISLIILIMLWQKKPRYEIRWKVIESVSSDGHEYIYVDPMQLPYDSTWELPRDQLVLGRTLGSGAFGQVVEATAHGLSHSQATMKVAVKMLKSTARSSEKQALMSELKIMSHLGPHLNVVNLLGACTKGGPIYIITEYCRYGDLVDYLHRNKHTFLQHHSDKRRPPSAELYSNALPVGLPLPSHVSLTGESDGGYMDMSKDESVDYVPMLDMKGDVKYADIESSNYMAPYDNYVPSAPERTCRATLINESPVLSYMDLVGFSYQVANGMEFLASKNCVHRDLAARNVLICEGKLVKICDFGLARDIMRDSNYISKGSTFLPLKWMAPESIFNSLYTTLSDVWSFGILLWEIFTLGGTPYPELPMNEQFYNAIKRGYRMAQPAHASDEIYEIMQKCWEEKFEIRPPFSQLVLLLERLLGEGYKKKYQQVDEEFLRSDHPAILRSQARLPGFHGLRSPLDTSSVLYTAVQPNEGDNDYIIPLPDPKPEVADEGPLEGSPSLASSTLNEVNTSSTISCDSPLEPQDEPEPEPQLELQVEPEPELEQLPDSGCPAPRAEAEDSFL

Row | Compound | IC50 (HUVECs) | T/C ([1]; 100 mg/kg p.o. QD, Day 21) | TGI ([1]; 100 mg/kg p.o. QD, Day 21) | Tumor volume at Day 21 ([1]; 100 mg/kg p.o. QD, mean ± SEM) | area of CD31 (tumor micro-vessel density, IHC) ([1]; 100 mg/kg, mean ± SEM, n = 3, control 3.38 ± 0.49) | IC50 (HBVPs) | T/C ([2]; 100 mg/kg p.o. QD, Day 21) | TGI ([2]; 100 mg/kg p.o. QD, Day 21) | Tumor volume at Day 21 ([2]; 100 mg/kg p.o. QD, mean ± SEM) | area of CD31 (tumor micro-vessel density, IHC) ([2]; 100 mg/kg, mean ± SEM, n = 3, control 4.96 ± 0.62) | IC50 (VEGFR2) | IC50 (FGFR1) | IC50 (PDGFRβ)
1 | COC(=O)c1ccc2c(c1)NC(=O)/C2=C(\Nc1ccc(N(C)C(=O)CN2CCN(C)CC2)cc1)c1ccccc1 [Nintedanib, reference compound] | 41 nM | 26% | 80% | 391 ± 43 mm^3 | 1.05 ± 0.33 | 1670 nM | 45% | 62% | 585 ± 101 mm^3 | 1.99 ± 0.04 | – | – | –
2 | COc1cc2nccc(Oc3ccc(NC(=S)NC4CC4)c(Cl)c3)c2cc1C(N)=O [WXFL-255, 4-(3-chloro-4-(3-cyclopropylthioureido)phenoxy)-7-methoxyquinoline-6-carboxamide] | 90.2 nM | – | – | – | – | – | – | – | – | – | 9.4 nM | 188 nM | 143 nM
